What was measured:
[1] = tested on: PSA-peptide tetramer+CD8+ cells; experiment: PSA-peptide-HLA-A2 tetramer analysis of PBMC from vaccinated patients; type: in vivo, human; details: out of 28 patients (50%), week 26 and/or week 52
[2] = DTH skin testing with PSA-peptide; type: in vivo, human
Protocol: A total of 28 patients were vaccinated with PSA-peptide at three time points, i.e., weeks 1, 4 and 10 and DTH skin testing was performed on weeks 4, 14, 26 and 52.

DTH-derived T-cells = experiment: Cytokine bead array (CBA) of DTH-derived T-cells cultured with peptide-pulsed T2 cells; type: cell-based, human
Protocol: Out-growth of T-cells was observed within 3 days. On day 4, 500 μl of the spent medium was aspirated and replenished with fresh medium plus IL-2 and cultured further for a total of 6-8 days, until the culture wells became confluent. […] Each cycle of stimulation was 7±1 days. Cytokines released into the culture supernatant, including IFN-γ, TNF-α, IL-4, IL-6 and IL-10, were measured concurrently by cytokine bead array (CBA) analysis (BD Biosciences, San Diego, Calif.). The antigen presenting cell line, T2 (ATCC, Manassas, Va.) was used as a stimulator and was pulsed with 20 μg/ml of PSA-peptide or control HLA-A2 binding peptide, HIV-RT476-484 or diluent alone (0.4% volume by volume). T2 cells (25,000/well) were cultured with DTH-derived T-cells (100,000/well) in complete medium containing 30 U/ml of IL-2 in a total volume of 1 ml per well in 48-well plates. […] Cells were incubated at 37° C. for 24 hours in 5% CO2 atmosphere. Supernatants were harvested and stored in sterile vials at −80° C. At the time of assay, samples were thawed and cytokines were measured using a CBA kit as per the manufacturer's protocol with a FACSCalibur flow cytometer (Becton Dickinson, Mountain View, Calif.).

T2 cells = experiment: Chromium release assay (CRA), 4 hour; type: cell-based, human
Protocol: Specific cytolytic activity was analyzed by standard 4 hour CRA as previously described (Xue et al., (1997) Prostate 30:73). […] Supernatants recovered from CRA were assayed for gamma emission using a Top-count NXT scintillation counter (Packard, Meriden, Conn.) and the percent specific lysis was calculated as previously described (Xue et al., (1997) Prostate 30:73).

[3] = 6 out of 7 patients, after 1-3 cycles in vitro stimulation with PSA-peptide
[4] = four patients, after 1-3 cycles in vitro stimulation

Question: What does the source list for “KLQCVDLHV (listed as Homo sapiens) [PSA-peptide]”?
Answer: patients who developed ≧4 fold increases in CD8+ PSA-peptide specific tetramer cells [1]: 14 patients; DTH induration with increasing doses of peptide ([2]; 1 to 20 μg peptide, responding patients): increasing level of DTH induration; patients who developed positive DTH responses to PSA-peptide over time ([2]; of 28 patients (fifty percent), DTH testing weeks 4, 14, 26, 52): 14 patients; specific IFN-γ responses, median (DTH-derived T-cells; [3]): 163 pg/mL; specific IFN-γ responses, range over patients (DTH-derived T-cells; [3]): 85 to 1030 pg/mL; specific levels of IL-4, range over patients (DTH-derived T-cells; [4]): 18 to 486 pg/mL; specific levels of TNF-α, median (DTH-derived T-cells; [4]): 38 pg/mL; specific levels of TNF-α, range over patients (DTH-derived T-cells; [4]): 23 to 96 pg/mL; IL-6 expression (DTH-derived T-cells; one patient (UPIN 49)): Non-specific expression; patients whose DTH-derived T-cells showed specific IFN-γ responses (DTH-derived T-cells; out of 7 patients): 6 patients; cytokine responses against T2 cells pulsed with PSA-peptide compared to HIV-RT476-484 or no peptide (DTH-derived T-cells; patient UPIN55, cycle 0, without peptide priming in vitro): specific cytokine responses; lysis of PSA-peptide-pulsed T2 cells by sorted CD4−CD8+ T-cells, compared to HIV-RT476-484 or no peptide (T2 cells; 4 patients, 1-4 cycles in vitro stimulation): peptide-specific lysis; cytolytic activity of induced T-cells (T2 cells; patient UPIN40): modest cytolytic activity; cytolytic activity of induced T-cells (T2 cells; patients UPIN45, UPIN 55, UPIN 49): strongly cytolytic
